Read-outs that look alike come from different tables or passages of the source.
Key:
[1] = system: HCC1937 cell lines; test: MTT cytotoxicity assay, HCC1937; format: cell-based, human; conditions: for IC50 / inhibition at 50 µM: Homo sapiens; for IC50: read-out: IC50 HCC1937; for inhibition at 50 µM: read-out: Inhibition rate (%) HCC1937
Protocol: (§1) After treatment with target compounds at the different concentrations, MTT was added and the cells were incubated for another 4 h. The IC50 values of the selected compounds were evaluated by the same method. The cells were treated with compounds at different concentrations. The OD values were detected using a microplate reader at 570 nm.

[2] = system: HCT-15 cell lines; test: MTT cytotoxicity assay, HCT-15; format: cell-based, human; conditions: for IC50 / inhibition at 50 µM: Homo sapiens; for IC50: read-out: IC50 HCT-15; for inhibition at 50 µM: read-out: Inhibition rate (%) HCT-15
Protocol: as §1

[3] = HCC1937, 72 h (3-Days) drug exposure, MTT
[4] = HCT-15, 72 h (3-Days) drug exposure, MTT

SMILES | IC50 [1, 3] [µM] | IC50 [2, 4] [µM] | melting point [°C] | other results
O=C(Nc1ccc(F)c(Cl)c1)N1CCN(Cc2nc3ccccc3c(=O)[nH]2)CC1 [A36, N-(3-chloro-4-fluorophenyl)-4-((4-oxo-3,4-dihydroquinazolin-2-yl)methyl)piperazine-1-carboxamide] | > 50 | 25.2 ± 1.66 | 200.1 to 202.7 | 
Cc1cc(F)ccc1NC(=O)N1CCN(Cc2nc3ccccc3c(=O)[nH]2)CC1 [A29, N-(4-fluoro-2-methylphenyl)-4-((4-oxo-3,4-dihydroquinazolin-2-yl)methyl)piperazine-1-carboxamide] | > 50 | 29.8 ± 1.57 | 197.6 to 200.1 | 
Cc1cc(C)cc(NC(=O)N2CCN(Cc3nc4ccccc4c(=O)[nH]3)CC2)c1 [A38, N-(3,5-dimethylphenyl)-4-((4-oxo-3,4-dihydroquinazolin-2-yl)methyl)piperazine-1-carboxamide] | 17.9 ± 1.32 | 18 ± 0.88 | 201.5 to 203.3 | 
O=C(Nc1ccc(F)cc1)N1CCN(Cc2nc3ccccc3c(=O)[nH]2)CC1 [A3, N-(4-fluorophenyl)-4-((4-oxo-3,4-dihydroquinazolin-2-yl)methyl)piperazine-1-carboxamide] | > 50 | > 50 | 196.5 to 197.8 | 
O=C(Nc1ccccc1F)N1CCN(Cc2nc3ccccc3c(=O)[nH]2)CC1 [A1, N-(2-fluorophenyl)-4-((4-oxo-3,4-dihydroquinazolin-2-yl)methyl)piperazine-1-carboxamide] | 16.6 ± 1.12 | 18.4 ± 0.91 | 192.5 to 194.2 | 
COC(=O)c1ccccc1N [compound 1] |  |  |  | inhibition at 50 µM ([1]; HCC1937, 72 h): 12.7%; inhibition at 50 µM ([2]; HCT-15, 72 h): 13.7%
CC(C)(C)OC(=O)N1CCN(Cc2nc3ccccc3c(=O)[nH]2)CC1 [compound 3] |  |  |  | inhibition at 50 µM ([1]; HCC1937, 50 μM, 72 h, MTT): 19.5%; inhibition at 50 µM ([2]; HCT-15, 50 μM, 72 h, MTT): 52.3%
O=C(Nc1cc(C(F)(F)F)cc(C(F)(F)F)c1)N1CCN(Cc2nc3ccccc3c(=O)[nH]2)CC1 [A39, N-(3,5-bis(trifluoromethyl)phenyl)-4-((4-oxo-3,4-dihydroquinazolin-2-yl)methyl)piperazine-1-carboxamide] | 42.2 ± 2.77 | 21 ± 2.33 | 204.2 to 206.1 | 
O=C(Nc1cc(F)ccc1F)N1CCN(Cc2nc3ccccc3c(=O)[nH]2)CC1 [A20, N-(2,5-difluorophenyl)-4-((4-oxo-3,4-dihydroquinazolin-2-yl)methyl)piperazine-1-carboxamide] | 41.7 ± 1.89 | 33.1 ± 2.16 | 202.1 to 204.2 | 
Cc1cccc(C)c1NC(=O)N1CCN(Cc2nc3ccccc3c(=O)[nH]2)CC1 [A33, N-(2,6-dimethylphenyl)-4-((4-oxo-3,4-dihydroquinazolin-2-yl)methyl)piperazine-1-carboxamide] | 39.6 ± 1.35 | 35 ± 2.28 | 200.3 to 201.9 | 
COc1ccc(NC(=O)N2CCN(Cc3nc4ccccc4c(=O)[nH]3)CC2)cc1 [A18, N-(4-methoxyphenyl)-4-((4-oxo-3,4-dihydroquinazolin-2-yl)methyl)piperazine-1-carboxamide] | > 50 | > 50 | 184.9 to 186.9 | 
Cc1ccc(Cl)cc1NC(=O)N1CCCN(Cc2nc3ccccc3c(=O)[nH]2)CC1 [B4, N-(5-chloro-2-methylphenyl)-4-((4-oxo-3,4-dihydroquinazolin-2-yl)methyl)-1,4-diazepane-1-carboxamide] | 5.77 ± 0.99 | 5.65 ± 1.29 | 186.6 to 187.9 | 
O=c1[nH]c(CCl)nc2ccccc12 [compound 2] |  |  |  | inhibition at 50 µM ([1]; HCC1937, 50 μM, 72 h, MTT): 10.3%; inhibition at 50 µM ([2]; HCT-15, 50 μM, 72 h, MTT): 31.9%
O=C(Nc1cc(C(F)(F)F)ccc1Cl)N1CCN(Cc2nc3ccccc3c(=O)[nH]2)CC1 [A26, N-(2-chloro-5-(trifluoromethyl)phenyl)-4-((4-oxo-3,4-dihydroquinazolin-2-yl)methyl)piperazine-1-carboxamide] | > 50 | 37.3 ± 2.76 | 191.2 to 193.9 | 
Cc1ccc(Cl)cc1NC(=O)N1C2CCC1CN(Cc1nc3ccccc3c(=O)[nH]1)C2 [B6, N-(5-chloro-2-methylphenyl)-3-((4-oxo-3,4-dihydroquinazolin-2-yl)methyl)-3,8-diazabicyclo[3.2.1]octane-8-carboxamide] |  |  | 192.3 to 193.6 | IC50 ([1]; HCC1937, 72 h): 7.52 ± 1.37 µM; IC50 ([2]; HCT-15, 72 h): 7.27 ± 1.28 µM
Cc1ccc(NC(=O)N2CCN(Cc3nc4ccccc4c(=O)[nH]3)CC2)cc1C [A37, N-(3,4-dimethylphenyl)-4-((4-oxo-3,4-dihydroquinazolin-2-yl)methyl)piperazine-1-carboxamide] | 46.4 ± 2.96 | 22.5 ± 1.49 | 194.4 to 196.1 | 
Cc1ccc(Cl)cc1NC(=O)N1CCCN(Cc2nc3ccccc3c(=O)[nH]2)C1 [B7, N-(5-chloro-2-methylphenyl)-3-((4-oxo-3,4-dihydroquinazolin-2-yl)methyl)tetrahydropyrimidine-1(2H)-carboxamide] | 57.9 ± 3.33 | 13.7 ± 1.21 | 197.3 to 198.7 | 

SMILES | IC50 [1, 3] [µM] | IC50 [2, 4] [µM] | melting point [°C] | other results
O=C(Nc1cc(Cl)cc(Cl)c1)N1CCN(Cc2nc3ccccc3c(=O)[nH]2)CC1 [A35, N-(3,5-dichlorophenyl)-4-((4-oxo-3,4-dihydroquinazolin-2-yl)methyl)piperazine-1-carboxamide] | > 50 | 21.2 ± 0.89 | 207.5 to 209.5 | 
Cc1ccccc1NC(=O)N1CCN(Cc2nc3ccccc3c(=O)[nH]2)CC1 [A10, 4-((4-oxo-3,4-dihydroquinazolin-2-yl)methyl)-N-(o-tolyl)piperazine-1-carboxamide] | 14.7 ± 1.03 | 15.9 ± 0.85 | 199.9 to 201.6 | 
O=C(Nc1ccccc1Cl)N1CCN(Cc2nc3ccccc3c(=O)[nH]2)CC1 [A4, N-(2-chlorophenyl)-4-((4-oxo-3,4-dihydroquinazolin-2-yl)methyl)piperazine-1-carboxamide] | 14.7 ± 1.67 | 19.1 ± 1.12 | 197.9 to 199.6 | 
Cc1ccc(Cl)cc1NC(=O)N1C[C@@H]2C[C@H]1CN2Cc1nc2ccccc2c(=O)[nH]1 [B3, (1S,4S)-N-(5-chloro-2-methylphenyl)-5-((4-oxo-3,4-dihydroquinazolin-2-yl)methyl)-2,5-diazabicyclo[2.2.1]heptane-2-carboxamide] | 16.5 ± 0.94 | 12.5 ± 1.49 | 191.1 to 192.4 | 
O=C(Nc1ccc(Br)cc1)N1CCN(Cc2nc3ccccc3c(=O)[nH]2)CC1 [A9, N-(4-bromophenyl)-4-((4-oxo-3,4-dihydroquinazolin-2-yl)methyl)piperazine-1-carboxamide] | > 50 | > 50 | 187.8 to 188.9 | 
O=C(Nc1ccc(C(F)(F)F)cc1F)N1CCN(Cc2nc3ccccc3c(=O)[nH]2)CC1 [A24, N-(2-fluoro-4-(trifluoromethyl)phenyl)-4-((4-oxo-3,4-dihydroquinazolin-2-yl)methyl)piperazine-1-carboxamide] | 44.1 ± 2.19 | 22.8 ± 1.82 | 202.3 to 203.9 | 
O=C(Nc1cc(F)cc(F)c1)N1CCN(Cc2nc3ccccc3c(=O)[nH]2)CC1 [A34, N-(3,5-difluorophenyl)-4-((4-oxo-3,4-dihydroquinazolin-2-yl)methyl)piperazine-1-carboxamide] | > 50 | 47.2 ± 3.35 | 199.8 to 200.2 | 
O=C(Nc1cccc(Cl)c1)N1CCN(Cc2nc3ccccc3c(=O)[nH]2)CC1 [A5, N-(3-chlorophenyl)-4-((4-oxo-3,4-dihydroquinazolin-2-yl)methyl)piperazine-1-carboxamide] | 25.9 ± 0.96 | 19.1 ± 0.79 | 193.3 to 195.2 | 
O=C(Nc1cccc(Br)c1)N1CCN(Cc2nc3ccccc3c(=O)[nH]2)CC1 [A8, N-(3-bromophenyl)-4-((4-oxo-3,4-dihydroquinazolin-2-yl)methyl)piperazine-1-carboxamide] | 47.4 ± 2.96 | 27.7 ± 2.56 | 194.2 to 196.3 | 
O=C(Nc1c(F)cccc1Cl)N1CCN(Cc2nc3ccccc3c(=O)[nH]2)CC1 [A25, N-(2-chloro-6-fluorophenyl)-4-((4-oxo-3,4-dihydroquinazolin-2-yl)methyl)piperazine-1-carboxamide] | > 50 | 41.2 ± 1.44 | 198.4 to 199.8 | 
O=C(Nc1ccccc1Br)N1CCN(Cc2nc3ccccc3c(=O)[nH]2)CC1 [A7, N-(2-bromophenyl)-4-((4-oxo-3,4-dihydroquinazolin-2-yl)methyl)piperazine-1-carboxamide] | 40.3 ± 3.32 | 29.6 ± 1.37 | 195.1 to 196.7 | 
O=c1[nH]c(CN2CCNCC2)nc2ccccc12 [compound 4] |  |  |  | inhibition at 50 µM ([1]; HCC1937, 50 μM, 72 h, MTT): 16.5%; inhibition at 50 µM ([2]; HCT-15, 50 μM, 72 h, MTT): 48.9%
Oc1ccc(N2CCNCC2)cc1 [compound 23] |  |  |  | Inhibition rate (%) HCC1937 ([1]; 50 μM, 72 h, MTT): 9.2%; Inhibition rate (%) HCT-15 ([2]; 50 μM, 72 h, MTT): 41.9%
C[C@H](CCC(=O)O)[C@H]1CC[C@H]2[C@@H]3C(=O)C[C@@H]4CC(=O)CC[C@]4(C)[C@H]3CC(=O)[C@]12C [compound 35] |  |  |  | Inhibition rate (%) HCC1937 ([1]; 50 μM, 72 h, MTT): 21.4%; Inhibition rate (%) HCT-15 ([2]; 50 μM, 72 h, MTT): 12.3%
Cc1ccc(-c2cc(C(F)(F)F)nn2-c2ccc(S(N)(=O)=O)cc2)cc1 [compound 54] |  |  |  | Inhibition rate (%) HCC1937 ([1]; 50 μM, 72 h, MTT): 33.1%; Inhibition rate (%) HCT-15 ([2]; 50 μM, 72 h, MTT): 33.5%
O=c1[nH]c(=O)n([C@H]2C[C@H](O)[C@@H](CO)O2)cc1/C=C/Br [compound 33] |  |  |  | Inhibition rate (%) HCC1937 ([1]; 50 μM, 72 h, MTT): 17.3%; Inhibition rate (%) HCT-15 ([2]; 50 μM, 72 h, MTT): 28.5%

From article PMC10974284, “Discovery of Novel 4-Hydroxyquinazoline Derivatives: In Silico, In Vivo and In Vitro Studies Using Primary PARPi-Resistant Cell Lines” (Molecules, 2024)
